Test system: CA1 pyramidal neurons
Experiment: Dendritic spine density in hippocampal organotypic slice cultures
Assay type: cell-based, mouse
Procedure: Wilde type (C57B1/6) mice were housed in a temperature-controlled room and maintained on a 12 hr light/dark cycle. Food and water were available ad libitum and experiments were carried out in accordance with the local authorization guidelines for the care and use of laboratory animals. Slice cultures were established according to the procedure described by Stoppini and colleagues (Galimberti et al., 2006; Stoppini et al., 1991). […] For organotypic slice cultures, brains of P6-P9 transgenic mice were dissected in cold MEM (GIBCO) medium, and hippocampal coronal sections of 400 μm were obtained with a tissue chopper (McIlwain). Slices were selected, placed on Millicell (Millipore, PICM03050) and cultured in 6-well dishes at 35° C. and 5% CO2 in the presence of 1 ml of medium. The entire slice isolation procedure took about 30 min. The culture medium was exchanged every third day. Treatments were performed in fresh culture medium for the indicated time periods.
Brain slices were transfected with plasmids encoding shCont, and shShank3 using helios gene gun system (Bio-Rad Laboratories, #165-2431) as previously described (Proenca et al., 2013). Subsequently, slices were fixed, stained, mounted, and analyzed following the protocols described below in the immunohistochemistry and microscopy paragraphs.
Slices were fixed for 10 minutes in 4% PFA, washed in PBS and blocked for 4 hr at room temperature in 0.3% Triton X-100 20% Horse Serum/PBS (blocking solution). GFP primary antibody was incubated for 24 hr at 4° C. in the blocking solution. Afterwards, slices were washed in PBS, incubated for 2 hr in 0.3% Triton X-100/PBS with Alexa Fluor® 488 Donkey anti-chicken secondary antibody (Life technologies). Finally, slices were washed in PBS, incubated 10 minutes with DAPI (Life technologies) and mounted on glass slides using ProLong mountant (Life technologies).
High resolution images were acquired on an upright Zeiss LSM700 confocal microscope, using a Plan-Neofluar 100×/1.3 oil immersion objective. For the analysis of dendritic spine density, confocal 3D stacks were acquired in CA1 region for each experiment. To quantify spine density, a stretch of approximately 30 μm was selected on secondary dendrites originating at the branch point from the primary dendrite. Only secondary dendrites were considered to reduce variability. Dendritic length was measured using the ImageJ plugin, Simple Neurite tracer, and spine density manually counted using the Cell Counter plugin.
The above findings implicate CLK2 overexpression as a specific anomaly that is causative for attenuated Akt activity in neurons deficient for Shank3. Consequently, inhibiting CLK2 activity or directly activating Akt would restore neuronal impairments associated with Shank3 loss of function. First, a small-molecule Akt-activator, SC79, was tested for its ability to restore Akt phosphorylation (FIG. 5A). SC79 binds directly to Akt to facilitate an ‘open’ conformation of the protein that is accessible to upstream activating kinases (eg. PDK1). This obviates the need for PtdIns(3,4,5)P3 (PIP3) production and recruitment of Akt to the plasma membrane (Rodgers, Cell Metab. 11, 23-34, 2010). […] Decreased principal neuron dendritic spine density has frequently been observed in Shank3 loss of function models (Durand et al., 2007, Nature Genetics 39: 25-27; Peca et al., 2011, Nature 472: 437-442; Verpelli et al., 2011, The Journal of Biological Chemistry 286: 34839-34850). Knock-down of Shank3 in hippocampal organotypic slice cultures, via biolistic transfection of shRNA vectors, faithfully recapitulated this phenotype in CA1 pyramidal neurons, whereby a two-fold reduction in apical dendrite spine density resulted (FIG. 6A). […]

Question: What does the source list for `CCN1/C(=C/C(C)=O)Sc2ccc(OC)cc21` [TG003, (Z)-1-(3-ethyl-5-methoxy-2,3-dihydrobenzothiazol-2-ylidene)propan-2-one]?
Answer: spine density (Shank3 knock down neurons, TG003 24 hours): increased spine density in Shank3 knock down neurons to control levels; dendritic spine density (knockdown of Shank3 with additional shRNAs, 24 h pre-treatment with TG003, fixed DIV 14): corrected

Question: `CCOC(=O)C1=C(N)Oc2ccc(Cl)cc2C1C(C#N)C(=O)OCC` (stereo not shown) [SC79] was tested. Which spine density (Shank3 knock down neurons, 4 μg/ml SC79, 24 hr, DIV 14) did it give?
Answer: rescued the spine density impairment in Shank3 knock down neurons

Question: What about the spine density (control neurons, 4 μg/ml SC79, 24 hr, DIV 14) of the same compound?
Answer: without significantly affecting controls
